Laboratory results: patent US20080009418A1, “Selective Inhibitors” (Alchemia LTD., priority 2004, published 2008)

Assays:
Human δ-opioid (DOP) = target: T1, Human δ-opioid (DOP) (Homo sapiens, UniProt P41143); assay: Radioligand binding, human δ-opioid (DOP) membranes, FlashPlate, [3H]-Bremazocine; conditions: compound at 10 μM; [3H]-Bremazocine
T1 construct: purchased Perkin Elmer Biosignal
Method in brief: (§1)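 Cloned human receptor membranes were coated onto FlashPlate wells and incubated with radioligand and compound (added from a 0.5 mM DMSO daughter plate) for 1 hour at room temperature in the dark. Scintillation counting gave percent inhibition, with DMSO defining total and reference ligand defining non-specific binding.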

Human κ-Opioid (KOP) = target: T2, Human κ-Opioid (KOP) (Homo sapiens, UniProt P41145); assay: Radioligand binding, human κ-opioid (KOP) membranes, filtration, [3H]-Diprenorphine; conditions: compound at 10 μM, [3H]-Diprenorphine
T2 construct: purchased Perkin Elmer Biosignal
Method in brief: (§2)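 Percent inhibition of radioligand binding measured on recombinant human membranes: NK1 with [125I]-Substance P, KOP with [3H]-Diprenorphine. Incubation 1 h at room temperature, then harvest onto 0.3% PEI-soaked filters, cold Tris-HCl pH 7.4 washes and scintillation counting; non-specific binding from reference ligand wells.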

Human Melanocortin (MC3) = target: T3, Human Melanocortin (MC3) (Homo sapiens, UniProt P41968); assay: Radioligand binding, human melanocortin MC3 membranes, FlashPlate, [125I]-NDP-αMSH; conditions: compound at 10 μM, [125I]-NDP-αMSH
T3 construct: purchased Perkin Elmer Biosignal
Method in brief: as §1

Human Melanocortin (MC4) = target: T4, Human Melanocortin (MC4) (Homo sapiens, UniProt P32245); assay: Radioligand binding, human melanocortin MC4 membranes, FlashPlate, [125I]-NDP-αMSH; conditions: compound at 10 μM, [125I]-NDP-αMSH
T4 construct: purchased Perkin Elmer Biosignal
Method in brief: as §1

Human melanocortin (MC5) = target: T5, Human melanocortin (MC5) (Homo sapiens, UniProt P33032); assay: Radioligand binding, human melanocortin MC5 membranes, FlashPlate, [125I]-NDP-αMSH; conditions: compound at 10 μM, [125I]-NDP-αMSH
T5 construct: purchased Perkin Elmer Biosignal
Method in brief: as §1

[1] = target: T6, Human melanin-concentrating hormone (MCH1) (Homo sapiens, UniProt Q99705); assay: Radioligand binding, human melanin-concentrating hormone MCH1 membranes, FlashPlate, [125I]-S36057; conditions: compound at 10 μM, [125I]-S36057
T6 construct: purchased Perkin Elmer Biosignal
Method in brief: as §1

Human μ-opioid (MOP) = target: T7, Human μ-opioid (MOP) (Homo sapiens, UniProt P35372); assay: Radioligand binding, human μ-opioid (MOP) membranes, FlashPlate, [3H]-Naloxone; conditions: compound at 10 μM; [3H]-Naloxone
T7 construct: purchased Perkin Elmer Biosignal
Method in brief: as §1

Human neurokinin (NK1) = target: T8, Human neurokinin (NK1) (Homo sapiens, UniProt P25103); assay: Radioligand binding, human neurokinin NK1 membranes, filtration, [125I]-Substance P; conditions: compound at 10 μM; [125I]-Substance P
T8 construct: purchased Perkin Elmer Biosignal
Method in brief: as §2

[2] = target: T9, Human neuropeptide Y (NPY-Y1) (Homo sapiens, UniProt P25929); assay: Radioligand binding, human neuropeptide Y NPY-Y1 membranes, FlashPlate, [125I]-PYY; conditions: compound at 10 μM; [125I]-PYY
T9 construct: purchased Perkin Elmer Biosignal
T9 sequence (P25929 1-384): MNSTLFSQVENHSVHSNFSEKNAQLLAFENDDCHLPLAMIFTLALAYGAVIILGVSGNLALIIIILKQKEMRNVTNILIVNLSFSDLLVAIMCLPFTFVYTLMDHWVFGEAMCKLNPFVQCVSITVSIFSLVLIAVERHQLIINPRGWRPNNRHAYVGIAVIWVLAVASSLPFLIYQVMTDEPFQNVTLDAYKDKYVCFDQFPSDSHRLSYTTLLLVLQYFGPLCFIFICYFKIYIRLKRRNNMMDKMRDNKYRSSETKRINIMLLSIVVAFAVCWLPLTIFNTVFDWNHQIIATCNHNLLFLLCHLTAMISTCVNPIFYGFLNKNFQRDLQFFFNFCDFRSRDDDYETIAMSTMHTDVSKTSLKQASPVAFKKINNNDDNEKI
Method in brief: as §1

Human opioid (ORL1) = target: T10, Human opioid (ORL1) (Homo sapiens, UniProt P41146); assay: Radioligand binding, human opioid ORL1 membranes, FlashPlate, [125I]-Nociceptin; conditions: compound at 10 μM; [125I]-Nociceptin
T10 construct: purchased Perkin Elmer Biosignal
Method in brief: as §1

Mouse urotensin (mUR2) = target: T11, Mouse urotensin (mUR2) (Mus musculus, UniProt Q8VIH9); assay: Radioligand binding, mouse urotensin mUR2 membranes, FlashPlate, [125I]-Urotensin II; conditions: compound at 10 μM; [125I]-Urotensin II
T11 construct: purchased Perkin Elmer Biosignal
T11 sequence (Q8VIH9 1-385): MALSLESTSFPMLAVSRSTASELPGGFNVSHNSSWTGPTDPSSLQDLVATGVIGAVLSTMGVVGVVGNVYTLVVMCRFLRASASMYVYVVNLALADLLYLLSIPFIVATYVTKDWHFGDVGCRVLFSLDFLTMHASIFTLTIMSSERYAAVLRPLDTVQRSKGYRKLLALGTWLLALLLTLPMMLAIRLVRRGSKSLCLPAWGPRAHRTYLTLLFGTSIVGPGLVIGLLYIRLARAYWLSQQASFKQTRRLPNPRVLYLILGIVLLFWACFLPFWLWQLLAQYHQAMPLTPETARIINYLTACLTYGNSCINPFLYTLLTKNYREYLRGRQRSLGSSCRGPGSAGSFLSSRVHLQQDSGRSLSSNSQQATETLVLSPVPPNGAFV
Method in brief: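 Cloned mouse urotensin (mUR2) receptor membranes from Perkin Elmer Biosignal were immobilized in FlashPlate microplates using a proprietary coating. Each well got 19.5 μl buffer, then 0.5 μl of DMSO, reference ligand, or compound. Adding 5 μl of [125I]-Urotensin II, diluted to 5× final concentration in binding buffer, started binding. Plates were sealed with TopSeal-A and incubated 1 hour at room temperature in the dark. Wells were counted for 30 seconds each on a TopCount after a 60-second delay, and percentage inhibition was calculated.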

T5 sequence (P33032 whole entry): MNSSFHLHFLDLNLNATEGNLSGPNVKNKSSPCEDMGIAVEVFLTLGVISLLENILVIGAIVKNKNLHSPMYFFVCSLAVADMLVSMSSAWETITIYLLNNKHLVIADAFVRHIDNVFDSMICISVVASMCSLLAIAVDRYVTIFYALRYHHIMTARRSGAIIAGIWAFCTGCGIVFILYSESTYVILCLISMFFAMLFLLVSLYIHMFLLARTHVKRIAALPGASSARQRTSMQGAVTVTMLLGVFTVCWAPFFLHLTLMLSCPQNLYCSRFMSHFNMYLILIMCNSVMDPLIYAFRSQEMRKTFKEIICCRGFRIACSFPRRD
T8 sequence (P25103 whole entry): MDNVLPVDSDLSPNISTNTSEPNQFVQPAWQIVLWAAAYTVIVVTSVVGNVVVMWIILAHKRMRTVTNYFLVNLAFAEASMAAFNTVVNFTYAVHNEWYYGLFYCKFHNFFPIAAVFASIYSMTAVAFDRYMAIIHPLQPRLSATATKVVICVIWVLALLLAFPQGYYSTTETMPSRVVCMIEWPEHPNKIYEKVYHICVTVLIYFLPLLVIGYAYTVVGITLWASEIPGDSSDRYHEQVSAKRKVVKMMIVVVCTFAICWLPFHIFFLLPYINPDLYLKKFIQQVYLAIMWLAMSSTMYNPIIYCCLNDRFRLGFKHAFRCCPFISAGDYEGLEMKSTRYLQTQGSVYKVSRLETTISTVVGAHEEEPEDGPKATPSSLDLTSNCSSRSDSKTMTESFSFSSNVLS
T7 sequence (P35372 whole entry): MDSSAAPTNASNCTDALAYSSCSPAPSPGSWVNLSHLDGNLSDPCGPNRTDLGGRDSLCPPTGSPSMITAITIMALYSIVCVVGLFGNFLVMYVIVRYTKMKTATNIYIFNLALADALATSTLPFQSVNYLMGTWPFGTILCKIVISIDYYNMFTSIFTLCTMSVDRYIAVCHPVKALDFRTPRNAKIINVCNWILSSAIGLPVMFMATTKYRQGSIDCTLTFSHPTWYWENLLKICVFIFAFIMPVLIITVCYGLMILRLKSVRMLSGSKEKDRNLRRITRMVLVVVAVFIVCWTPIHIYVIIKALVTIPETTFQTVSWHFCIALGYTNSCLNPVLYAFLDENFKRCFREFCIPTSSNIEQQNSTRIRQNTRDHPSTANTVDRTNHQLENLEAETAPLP
T4 sequence (P32245 whole entry): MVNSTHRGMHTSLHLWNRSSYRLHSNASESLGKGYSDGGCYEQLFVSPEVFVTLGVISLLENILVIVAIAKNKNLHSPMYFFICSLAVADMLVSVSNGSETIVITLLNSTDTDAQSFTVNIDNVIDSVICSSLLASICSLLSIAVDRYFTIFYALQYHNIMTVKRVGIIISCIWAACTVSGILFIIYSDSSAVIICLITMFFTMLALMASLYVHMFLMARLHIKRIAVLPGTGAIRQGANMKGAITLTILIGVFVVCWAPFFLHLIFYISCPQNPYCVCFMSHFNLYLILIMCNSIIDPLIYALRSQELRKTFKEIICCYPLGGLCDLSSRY
T1 sequence (P41143 whole entry): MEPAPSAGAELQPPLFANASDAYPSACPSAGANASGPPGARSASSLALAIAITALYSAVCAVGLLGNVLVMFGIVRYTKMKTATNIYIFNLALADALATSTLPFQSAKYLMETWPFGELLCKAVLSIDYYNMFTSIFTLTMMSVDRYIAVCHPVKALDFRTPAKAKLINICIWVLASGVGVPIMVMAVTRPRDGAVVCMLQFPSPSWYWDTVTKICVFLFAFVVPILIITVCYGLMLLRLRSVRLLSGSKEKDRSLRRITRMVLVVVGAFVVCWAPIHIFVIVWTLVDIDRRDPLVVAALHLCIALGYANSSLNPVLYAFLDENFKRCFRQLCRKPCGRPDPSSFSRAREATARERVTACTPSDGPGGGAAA
T3 sequence (P41968 whole entry): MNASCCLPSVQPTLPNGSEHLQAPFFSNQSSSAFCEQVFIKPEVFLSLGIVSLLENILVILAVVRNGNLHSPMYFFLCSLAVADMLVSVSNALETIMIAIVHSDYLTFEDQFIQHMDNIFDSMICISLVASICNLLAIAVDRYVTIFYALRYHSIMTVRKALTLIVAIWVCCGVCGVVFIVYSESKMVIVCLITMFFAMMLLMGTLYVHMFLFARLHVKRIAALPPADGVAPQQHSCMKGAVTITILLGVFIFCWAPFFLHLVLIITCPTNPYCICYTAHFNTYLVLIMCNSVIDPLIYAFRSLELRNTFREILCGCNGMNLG
T10 sequence (P41146 whole entry): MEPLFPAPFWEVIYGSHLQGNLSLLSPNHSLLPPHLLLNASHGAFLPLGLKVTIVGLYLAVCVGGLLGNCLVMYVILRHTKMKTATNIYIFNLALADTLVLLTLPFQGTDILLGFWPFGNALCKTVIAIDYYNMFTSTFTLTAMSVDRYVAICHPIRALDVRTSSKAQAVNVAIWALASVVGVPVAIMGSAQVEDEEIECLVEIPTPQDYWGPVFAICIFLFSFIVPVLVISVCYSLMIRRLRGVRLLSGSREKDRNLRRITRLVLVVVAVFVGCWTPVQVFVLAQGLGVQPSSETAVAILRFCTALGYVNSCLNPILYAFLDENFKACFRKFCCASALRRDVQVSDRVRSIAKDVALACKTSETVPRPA
T2 sequence (P41145 whole entry): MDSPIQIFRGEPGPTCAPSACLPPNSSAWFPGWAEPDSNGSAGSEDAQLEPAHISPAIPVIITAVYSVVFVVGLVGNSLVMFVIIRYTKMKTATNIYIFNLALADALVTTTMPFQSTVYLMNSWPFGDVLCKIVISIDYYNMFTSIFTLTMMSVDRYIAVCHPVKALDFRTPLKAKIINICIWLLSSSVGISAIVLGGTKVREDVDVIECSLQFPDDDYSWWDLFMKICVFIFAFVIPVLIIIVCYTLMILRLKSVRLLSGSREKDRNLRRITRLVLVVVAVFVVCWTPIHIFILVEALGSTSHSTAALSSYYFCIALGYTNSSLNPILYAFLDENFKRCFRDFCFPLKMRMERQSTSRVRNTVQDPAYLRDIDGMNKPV
T6 sequence (Q99705 whole entry): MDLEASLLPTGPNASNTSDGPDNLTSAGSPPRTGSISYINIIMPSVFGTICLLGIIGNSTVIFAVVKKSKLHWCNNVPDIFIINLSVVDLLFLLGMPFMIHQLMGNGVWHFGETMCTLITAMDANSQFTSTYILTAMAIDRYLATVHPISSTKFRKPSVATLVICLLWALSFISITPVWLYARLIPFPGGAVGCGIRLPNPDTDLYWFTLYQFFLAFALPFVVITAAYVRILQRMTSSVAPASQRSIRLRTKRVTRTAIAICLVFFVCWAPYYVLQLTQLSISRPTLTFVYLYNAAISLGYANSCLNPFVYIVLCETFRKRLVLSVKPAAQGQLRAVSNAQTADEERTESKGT

## COCC1OC(OCc2ccccc2)C(NC(=O)CCCNC(=N)N)C(OCc2ccccc2)C1O (stereo not drawn) [compound 175]
Human δ-opioid (DOP)
  A1 radioligand binding, percentage inhibition: − (“−” indicates less than 50% inhibition at 10 μM)
Human κ-Opioid (KOP)
  A2 radioligand binding, percentage inhibition: − (“−” indicates less than 50% inhibition at 10 μM)
Human Melanocortin (MC3)
  A3 radioligand binding, percentage inhibition: − (“−” indicates less than 50% inhibition at 10 μM)
Human Melanocortin (MC4)
  A4 radioligand binding, percentage inhibition: − (“−” indicates less than 50% inhibition at 10 μM)
Human melanocortin (MC5)
  A5 radioligand binding, percentage inhibition: − (“−” indicates less than 50% inhibition at 10 μM)
[1]
  A6 radioligand binding, percentage inhibition: − (“−” indicates less than 50% inhibition at 10 μM)
Human μ-opioid (MOP)
  A7 radioligand binding, percentage inhibition: − (“−” indicates less than 50% inhibition at 10 μM)
Human neurokinin (NK1)
  A8 radioligand binding, percentage inhibition: + (“+” indicates greater than 50% inhibition at 10 μM)
[2]
  A9 radioligand binding, percentage inhibition: − (“−” indicates less than 50% inhibition at 10 μM)
Human opioid (ORL1)
  A10 radioligand binding, percentage inhibition: − (“−” indicates less than 50% inhibition at 10 μM)
Mouse urotensin (mUR2)
  A11 radioligand binding, percentage inhibition: − (“−” indicates less than 50% inhibition at 10 μM)

## N=C(N)NCCC(=O)N[C@H]1C(OCc2ccc(Cl)cc2)O[C@H](COCc2ccc3ccccc3c2)[C@@H](O)[C@@H]1OCc1ccc2ccccc2c1 (stereo partly drawn) [compound 529]
Human δ-opioid (DOP)
  A1: inhibition of radioligand binding, human δ-opioid (DOP): − (“−” indicates less than 50% inhibition at 10 μM)
Human κ-Opioid (KOP); 10 µM
  A2: inhibition of radioligand binding, human κ-opioid (KOP): + (“+” indicates greater than 50% inhibition at 10 μM)
Human Melanocortin (MC3); 10 µM
  A3: inhibition of radioligand binding, human melanocortin (MC3): + (“+” indicates greater than 50% inhibition at 10 μM)
Human Melanocortin (MC4); 10 µM
  A4: inhibition of radioligand binding, human melanocortin (MC4): + (“+” indicates greater than 50% inhibition at 10 μM)
Human melanocortin (MC5); 10 µM
  A5: inhibition of radioligand binding, human melanocortin (MC5): + (“+” indicates greater than 50% inhibition at 10 μM)
[1]; 10 µM
  A6: inhibition of radioligand binding, human melanin-concentrating hormone (MCH1): + (“+” indicates greater than 50% inhibition at 10 μM)
Human μ-opioid (MOP)
  A7: inhibition of radioligand binding, human μ-opioid (MOP): − (“−” indicates less than 50% inhibition at 10 μM)
Human neurokinin (NK1)
  A8: inhibition of radioligand binding, human neurokinin (NK1): + (“+” indicates greater than 50% inhibition at 10 μM)
[2]
  A9: inhibition of radioligand binding, human neuropeptide Y (NPY-Y1): − (“−” indicates less than 50% inhibition at 10 μM)
Human opioid (ORL1)
  A10: inhibition of radioligand binding, human opioid (ORL1): − (“−” indicates less than 50% inhibition at 10 μM)
Mouse urotensin (mUR2)
  A11: inhibition of radioligand binding, mouse urotensin (mUR2): − (“−” indicates less than 50% inhibition at 10 μM)

## CSC1OC(COCc2ccccc2)C(O)C(OCc2cccc(N)c2)C1NC(=O)C=Cc1ccccc1 (stereo not drawn) [compound 324]
Human δ-opioid (DOP)
  A1: inhibition of radioligand binding, human δ-opioid (DOP): − (“−” indicates less than 50% inhibition at 10 μM)
Human κ-Opioid (KOP)
  A2: inhibition of radioligand binding, human κ-opioid (KOP): − (“−” indicates less than 50% inhibition at 10 μM)
Human Melanocortin (MC3)
  A3: inhibition of radioligand binding, human melanocortin (MC3): − (“−” indicates less than 50% inhibition at 10 μM)
Human Melanocortin (MC4)
  A4: inhibition of radioligand binding, human melanocortin (MC4): − (“−” indicates less than 50% inhibition at 10 μM)
Human melanocortin (MC5)
  A5: inhibition of radioligand binding, human melanocortin (MC5): − (“−” indicates less than 50% inhibition at 10 μM)
[1]
  A6: inhibition of radioligand binding, human melanin-concentrating hormone (MCH1): − (“−” indicates less than 50% inhibition at 10 μM)
Human μ-opioid (MOP)
  A7: inhibition of radioligand binding, human μ-opioid (MOP): − (“−” indicates less than 50% inhibition at 10 μM)
Human neurokinin (NK1)
  A8: inhibition of radioligand binding, human neurokinin (NK1): + (“+” indicates greater than 50% inhibition at 10 μM)
[2]
  A9: inhibition of radioligand binding, human neuropeptide Y (NPY-Y1): − (“−” indicates less than 50% inhibition at 10 μM)
Human opioid (ORL1)
  A10: inhibition of radioligand binding, human opioid (ORL1): − (“−” indicates less than 50% inhibition at 10 μM)
Mouse urotensin (mUR2)
  A11: inhibition of radioligand binding, mouse urotensin (mUR2): − (“−” indicates less than 50% inhibition at 10 μM)
